“Also recorded” adds a separate entry of the source. Where two headings read alike, the source gives them in different places.
Tests used:
[1] = test system: conditions associated with thalamocortical dysrhythmia; assay: TLVES/Ketamine combination treatment of patients (Example 2); details: all three patients; tACS or tRNS 20 minutes; ketamine total dose 0.5-5.0 mg per kg infused over 15-50 minutes
[2] = test system: depression; details: ketamine alone, cited from earlier work
[3] = test system: obsessive-compulsive disorder (OCD); details: OCD patients infused with ketamine; compared with depression and CRPS; Pittenger et al. 2012; cited from earlier work
[4] = test system: conditions associated with thalamocortical dysrhythmia; assay: TMS/Ketamine combination treatment of patients (Example 1)
Procedure: Thirty-five patients were treated with a combination of ketamine and TMS. […] For simplicity of presentation in Table 2, patients receiving treatment more than once a week are shown as receiving a single treatment for that week. Also, intervals are rounded to the nearest week.
Others received a priming TMS treatment prior to the combination treatment. Some patients received neither pretreatment nor priming, although most patients received one or the other. Since the priming treatment is less rigorous than several days of pretreatment, all patients receiving pretreatment were ultimately switched to priming or neither. Pretreatment and or priming treatment were administered based upon diagnosis and patient compliance.

[5] = patient B3, Unipolar Depression & ADD, ketamine combined with TMS
[6] = patient B6, Bipolar Depression, ketamine combined with TMS
[7] = patient B23, Fibromyalgia, PTSD, mixed connective tissue disease, ketamine combined with TMS
[8] = patient B26, Bipolar Disorder, poly-substance abuse, ketamine combined with TMS
[9] = patient C11, Tourette's and secondary depression, ketamine combined with TMS
[10] = patient D8, OCD & secondary depression, ketamine combined with TMS
[11] = patient D20, Depression & frontal lobe disorder, ketamine combined with TMS
[12] = patient H2, Bipolar Depression, ketamine combined with TMS
[13] = patient K10, CRPS & regulatory disorder of childhood, ketamine combined with TMS
[14] = patient N7, Multiple head injuries and depression, ketamine combined with TMS
[15] = patient N13, Bipolar Disorder & chronic neck and back pain, ketamine combined with TMS
[16] = patient N14, Unipolar Depression, ADD, alcohol abuse, concussion, ketamine combined with TMS
[17] = patient N30, Depression, fibromyalgia, back pain, ketamine combined with TMS
[18] = patient O34, ADHD, concussion, back pain, substance abuse, ketamine combined with TMS
[19] = patient Q9, Bipolar Depression, ketamine combined with TMS
[20] = patient R17, Childhood depression, PTSD, poly-substance abuse, ketamine combined with TMS
[21] = patient R32, OCD & secondary depression, poly-substance abuse, ketamine combined with TMS
[22] = patient S1, Generalized anxiety & secondary depression, ketamine combined with TMS
[23] = patient S36, Depression, panic attacks, ketamine combined with TMS
[24] = patient T15, Bipolar Depression, ketamine combined with TMS
[25] = patient T29, Bipolar Disorder, dormant poly-substance abuse, ketamine combined with TMS
[26] = patient W24, Depression, ketamine combined with TMS
[27] = patient Z4, Unipolar Depression & ADD, ketamine combined with TMS
[28] = patient Z27, Childhood onset bipolar disorder, ADD, RSD, ketamine combined with TMS
[29] = patient, Bipolar Disorder, poly-substance abuse, ketamine combined with TMS
[30] = patient, Depression & poly-substance abuse, ketamine combined with TMS
[31] = patient, Unipolar Depression & minor epilepsy, ketamine combined with TMS
[32] = patients having positive outcomes, ketamine combined with TMS

CNC1(c2ccccc2Cl)CCCCC1=O (racemic) [ketamine, (RS)-2-(2-Chlorophenyl)-2-(methylamino)cyclohexanone]
Post-treatment fatigue compared with TMS/ketamine [1]: less of the post-treatment fatigue | Therapeutic benefit compared with TMS/ketamine [1]: same therapeutic benefits as TMS/ketamine | Lasting relief from suicidality or depression [2]: highly transitory | Success rate in the treatment of depression ([2]; dosages reportedly 5-15 times higher than with TMS): 60-70% | Lasting relief from suicidality or depression ([2]; listed as Ketamine): does not, however, appear to provide lasting relief from suicidality or depression | Effectiveness in treating depression ([2]; patients with bipolar disorder who have not responded to anti-depressants): effective | Time to rapid antidepressant effect ([2]; persons with major depressive disorder (and bipolar depression)): two | Benefit in OCD patients [3]: rather more limited | Outcome of the patients that completed treatment ([4]; all of the 28 patients that completed treatment, of thirty-five treated, ketamine combined with TMS): positive outcome | Outcome [4, 5]: entered graduate school, got out of abusive relationship | Overall Response [4, 5]: excellent | Outcome [4, 6]: entered graduate school, began to date for first time | Overall Response [4, 6]: excellent | Outcome [4, 7]: off pain medicine, calm, more active | Outcome: adverse effect [4, 7]: experienced severe nausea | Overall Response [4, 7]: excellent | Outcome [4, 8]: returned to college, got married | Overall Response [4, 8]: excellent | Outcome [4, 9]: off of inappropriate medicines, calm, in school | Overall Response [4, 9]: good | Outcome [4, 10]: back to work and active family life | Overall Response [4, 10]: good | Outcome [4, 11]: depression lifted, apathy lifted, pace of thought improved | Overall Response [4, 11]: excellent | Outcome [4, 12]: returned to home-life and active mothering | Overall Response [4, 12]: good | Outcome [4, 13]: off of opioid narcotics, entered trade school, saved subject's life | Overall Response [4, 13]: excellent | Outcome [4, 14]: off of all opioid narcotics, back to church life | Overall Response [4, 14]: excellent | Outcome [4, 15]: off of all opioid narcotics, calm, walking well | Overall Response [4, 15]: very good | Outcome [4, 16]: calm, repaired broken business & family life, sober | Overall Response [4, 16]: very good | Outcome [4, 17]: off opioid narcotics, not depressed, traveling | Overall Response [4, 17]: excellent | Outcome [4, 18]: did very well, significant other coaxed subject back to substance; also recorded: abuse | Overall Response [4, 18]: excellent | Outcome [4, 19]: back to work, repaired broken marriage | Overall Response [4, 19]: excellent | Outcome [4, 20]: learned to read, entered college, sober | Overall Response [4, 20]: excellent | Outcome [4, 21]: sober, calm, back to college | Overall Response [4, 21]: excellent | Outcome [4, 22]: returned to college, sober | Overall Response [4, 22]: excellent | Outcome [4, 23]: did very well, repaired broken marriage and family | Overall Response [4, 23]: excellent | Outcome [4, 24]: back to church life and active family life | Overall Response [4, 24]: excellent | Outcome [4, 25]: entered graduate school, running family business, still sober | Overall Response [4, 25]: excellent | Outcome [4, 26]: back to work and active family life | Overall Response [4, 26]: excellent | Outcome [4, 27]: no longer bedridden, left bad marriage | Overall Response [4, 27]: very good | Outcome [4, 28]: sober, calm, entered college and at work part-time | Overall Response [4, 28]: very good | Outcome [4, 29]: calm, still in early stage of treatment | Overall Response [4, 29]: very good | Outcome [4, 30]: sober, active with family business | Overall Response [4, 30]: excellent | Outcome [4, 31]: relapsed | Overall Response [4, 31]: good | Adverse side effects [4, 32]: reduced adverse side effects | Durability of the positive result [4, 32]: more robust, i.e., long lasting, positive result; also recorded: lasting result | Percentage of patients with positive outcome compared with success rate reported for TMS alone or ketamine alone ([4]; patients that completed treatment, ketamine combined with TMS): higher | Response to previous TMS/ketamine treatment ([4]; three more frail, less robust patients later given TLVES/ketamine): significantly improved

Reference: patent US10716950B2, “Treatment of thalamocortical dysrhythmia” (priority 2012, dated 2020)
